Reference: US20070003509A1, “Skin treatment composition” (priority 2005, published 2007)
Marks after values point to notes of the source that are not given here.

Key:
[1] = system: fibrillin-rich microfibrils proximal to the dermal-epidermal junction (DEJ); experiment: Patch-test protocol, immunohistochemistry of fibrillin-rich microfibrils in photoaged skin in vivo; set-up: species or system human; settings: for Fibrillin expression proximal to the DEJ, Mean (degree of immunostaining): scale 0-4
Text: (§1) It was done by identification of Procollagen-I and Fibrillin upregulation and matrix metalloprotease-1 (MMP-1) down-regulation in Skin In Vivo. Experiments were done following topical Retinoic Acid (RA) treatment for comparative purposes and analysis of the effects of salicyloyl-phytosphingosine and phytosphingosine compared with retinoic acid with respect to the expression of dermal markers in vivo. See: Watson R E B, Craven N M, Kang S, Jones C J P, Kielty C M, Griffiths C E M. A short term screening protocol, using fibrillin-1 as a […] molecule for photoageing repair agents. J Invest Dermatol, 116: 672-678, 2001, for published methodology.
(§2) Five healthy, but clinically photoaged volunteers, were recruited (age range 54-71 years). Test substances were applied separately under standard 6 mm diameter Finn chambers to the extensor aspect of the forearm: these were vehicle base (15 μl/chamber), 0.2% PS-SLC (15 μl/chamber), 0.05% PS-SLC (15 μl/chamber), 0.2% phytosphingosine (15 μl/chamber) and 0.025% all-tans RA (Retin-A® cream, Janssen-Cilag Ltd., 15 μl/chamber). Formulations were applied to clean skin on days 1 and 4 of the assay. All-trans RA was applied to an untreated site on day 4. On day 8, Finn chambers were removed and 3 mm punch biopsies were obtained under 1% lignocaine anaesthesia from each of the test site. Biopsies were embedded in OCT compound (Tissue-Tek®, Miles, Ind., USA) and snap frozen in liquid nitrogen. Biopsy sites were sutured with 1×4/o ethilon and subjects instructed to return between 7-10 days for suture removal. Frozen sections were […] at a thickness of 10 μm (OTF cryostat, Bright Instruments Ltd.) and mounted onto gelatin-coated slides prior to histological analysis. A number of extracellular matrix (ECM) molecules known to be altered in photoaged skin were assayed by immunohistochemistry to detail the potential effects of the novel formulations. The primary marker of outcome was the distribution of fibrillin-rich microfibrils proximal to the dermal-epidermal junction (DEJ). Also assessed was the distribution of procollagen-1 within the dermis.
(§3) Matrix metalloprotease-1 (MMP-1) levels were also assessed. Whilst the fibrillin and procollagen-1 should increase for an antiaging active levels of MMP-1 should decrease for an antiaging active, i.e., increased synthesis of dermal structural proteins together with reduced levels of the proteases that degrade them. For each analysis, the marker was identified in each of three sections (i.e., 3 sections/treatment/volunteer). Sections were optimally fixed. Routinely, following hydration in tris-buffered saline (TBS; 100 mM Tris, 150 mM NaCl), sections were solublised by addition of 0.5% Triton-X100 (10 minutes). Following washing, endogenous peroxidase activity was abolished by incubation with an excess of hydrogen peroxide in methanol (30 minutes). Sections were blocked prior to application of primary antibody (overnight incubation @4° C.). Negative controls were concurrently incubated with either block alone or control serum. Following incubation, sections were stringently washed with TBS prior to application of an appropriate biotinylated secondary antibody. This was further conjugated to the enzyme horseradish peroxidase using a commercially available kit following the manufacturers instructions (ABC Elite System, Vector Laboratory, Peterborough UK). Antibody was localised using Vector SG® as chromogen (10 minute incubation)—washing in TBS quenched this reaction. Sections were counterstained using Nuclear Fast Red and finally dehydrated through serial alcohols, cleared and permanently mounted.
(§4) Sections were randomised, blinded and examined on a Nikon OPTIPHOT microscope (Tokyo, Japan). For assessment of ECM and cornified envelope components, the degree of immunostaining was assessed on a 5 point semi-quantitative scale where 0=no staining and 4=maximal staining. Four sections (including control) were examined per subject per site. […]

[2] = system: pro-collagen I in the papillary dermis; experiment: Patch-test protocol, immunohistochemistry of pro-collagen I in photoaged skin in vivo; set-up: species or system human; settings: for Pro-collagen I expression in the papillary dermis, Mean (degree of immunostaining): scale 0-4, N=5
Text: as §1, §2, §3, §4

[3] = system: Matrix metalloprotease-1 (MMP-1); experiment: Patch-test protocol, immunohistochemistry of MMP-1 in photoaged skin in vivo; set-up: species or system human; settings: for MMP-1 expression, Mean (MMP-1 IHC): N=5
Text: as §1, §2, §3, §4

[4] = system: cellulite (thigh); experiment: Clinical trial of anticellulite activity by topical application; assay type: in vivo, human; settings: 0.2% formulation of Example 2, two times a day for 2 months, six female subjects
Text: Six female subjects were selected for a clinical trial of anticellulite activity of salicyloyl-phytoshingosine by topical application.
The scale ranged from 0 to 4, being 0=No cellulite; 1=Small bumps or depressions; 2=Striations and bumps; 3=Pronounced lumpiness of the skin and striations; 4=All of the above plus hard sub-surface nodules. All tested volunteers had cellulite with grades 1 and 2. The subjects were divided in 2 groups of 3 individuals
Group 1 was instructed to apply a formulation described in Example 2 containing 0.2% salicloyl-phytosphingosine on the right thigh and the vehicle formulation without salicyloyl-phytoshingosine in the left thigh Group 2 was instructed to apply the formulations vice versa. The subjects were taught to carry out the application two times a day, at morning and at night for a period of 2 months. Afterwards the cellulite condition was evaluated by comparison of the thigh diameter, the clinical degrading and the subjective improvement.

[5] = Patch-test protocol, erythema at the site of application; assay type: in vivo, human; settings: occluded patch test on forearm, photoaged volunteers
Protocol: as §2, with “The primary marker of outcome was the distribution of fibrillin-rich microfibrils proximal to the dermal-epidermal junction (DEJ).” left out

[6] = 0.2% topical occluded, vs vehicle
[7] = 0.2% topical under Finn chamber, applied days 1 and 4, biopsy day 8, N=5 photoaged volunteers
[8] = topical occluded application, concentration not given
[9] = 0.2% topical under Finn chamber, applied days 1 and 4, biopsy day 8
[10] = 0.05% topical under Finn chamber, applied days 1 and 4, biopsy day 8
[11] = 0.025% (Retin-A cream), applied day 4, biopsy day 8

SMILES | Fibrillin-1 deposition proximal to the DEJ (in words) [1, 6] | Fibrillin expression proximal to the DEJ, Mean (degree of immunostaining) [1, 7] | Fibrillin-rich microfibrillar network proximal to the DEJ of photoaged skin (study summary, in words) [1, 8] | pCI content in the papillary dermis (in words) [2, 6] | Pro-collagen I expression in the papillary dermis, Mean (degree of immunostaining) [2, 9] | Effects on procollagen I in the papillary dermis (study summary, in words) [2, 8] | MMP-1 levels (in words) [3, 6] | MMP-1 expression, Mean (MMP-1 IHC) [3, 9] | Fibrillin expression proximal to the DEJ, Mean (degree of immunostaining) ([1]; 0.05% topical under Finn chamber, applied days 1 and 4, biopsy day 8, N=5) | Pro-collagen I expression in the papillary dermis, Mean (degree of immunostaining) [2, 10] | MMP-1 expression, Mean (MMP-1 IHC) [3, 10] | Clinical grading (cellulite) reduction in comparison with the vehicle treated thigh [4] [%] | Subjective improvement increase in comparison with the vehicle treated thigh [4] [%] | Thigh diameter reduction in comparison with the vehicle treated thigh [4] [%] | Fibrillin expression proximal to the DEJ, Mean (degree of immunostaining) ([1]; 0.025% (Retin-A cream) under Finn chamber, applied day 4, biopsy day 8, N=5) | Pro-collagen I expression in the papillary dermis, Mean (degree of immunostaining) [2, 11] | MMP-1 expression, Mean (MMP-1 IHC) [3, 11] | Expression of MMP-1 (in words) ([3]; 0.025% all-trans RA, 4 day occluded application) | Erythema at the site of application [5]
CCCCCCCCCCCCCC[C@@H](O)[C@@H](O)[C@@H](N)CO [PS, phytosphingosine] | significant induction of fibrillin expression | 2.0000** | restores | significantly increased | 2.5556** | beneficial effects | no effect | 33.23 | – | – | – | – | – | – | – | – | – | – | –
CCCCCCCCCCCCCC[C@@H](O)[C@@H](O)[C@H](CO)NC(=O)c1ccccc1O [PS-SLC, salicyloyl-phytosphingosine] | – | 2.267* | – | – | 2.7790* | – | – | 22.72* | 1.7778** | 2.2472 | 18.40* | 27 | 34 | 4 | – | – | – | – | –
CC1=C(/C=C/C(C)=C/C=C/C(C)=C/C(=O)O)C(C)(C)CCC1 [RA, retinoic acid] | – | – | – | – | – | – | – | – | – | – | – | – | – | – | 2.8625** | 2.2667 | 36.82 | no effect | marked erythema
